# According to publication PMC11134350, “Substrate Promiscuity of Thermoplasma acidophilum Malic Enzyme for CO2 Fixation Reaction” (JACS Au, 2024):
# Where two headings read alike, the source gives them in different places.
# Tested on: T1, TaME (Thermoplasma acidophilum NADP+-malic enzyme)
# T1 construct: dimer (from structural model); Asn304 and Thr46* named at active site
# Assay: NADPH formation, oxidative decarboxylation, Michaelis-Menten
# Format: biochemical
# Conditions: NADP+ as cofactor, standard assay conditions in supplement section 1.3.1, read-out: Km(substrate)
# Description: NADPH formation, oxidative decarboxylation, Michaelis-Menten on TaME (Thermoplasma acidophilum NADP+-malic enzyme)
Km (0.05-1.0 mM malate) [µM],Km (0.03-0.60 mM isocitrate) [µM],SMILES
879 ± 149,–,"O=C(O)C[C@H](O)C(=O)O [1b, Malate]"
–,23.7 ± 5.2,"O=C(O)C[C@H](C(=O)O)[C@@H](O)C(=O)O [2b, Isocitrate]"
